# Reference: patent publication US9758395B2, “Lysine-based polymer coagulants for use in clarification of process waters” (priority 2011, dated 2017)
# Assay: Solubility of lysine HCl in water with temperature
# Assay type: physicochemical
# Settings: room temperature (20-25° C.), monohydrochloride
# Description: The solubilities of lysine were essentially the same with and without the maleic acid added to the water. For example, samples of lysine HCl were added to water in sealed, glass bottles, shaken, and placed in the forced-air oven at various temperatures. These were manually shaken periodically over the next few hours, then left to dissolve overnight. […] At 70° C., the lysine completely dissolved to 60%; at 80° C. to 62%; at 90° C. to 64%; at 100° C. to 66% lysine by weight in water. […] Representative samples of these materials were dried and polymerized at 220° C., 5 to 7 hours, under nitrogen.
smiles,measurement,setting,value
"Cl.NCCCC[C@H](N)C(=O)O [lysine HCl, L-lysine monohydrochloride]",solubility in water,listed as lysine,50 % by weight
same,solubility in water,,about 50 % by weight
